Counter-ions that a name gives are not always drawn.

In data set [1] the test system is nicotine-induced convulsion. Nature of the data set: Activity on nicotine-induced convulsion. It is filed as in vivo, male ddY mice. As to conditions: compound 25 mg/kg p.o., nicotine tartrate 3 mg/kg i.v. 15 min later, n=5; for mortality: dead animals because of the convulsions. As for the experimental part: 2. Activity on nicotine-induced convulsion
Male ddY mice 5 weeks old were used with 5 animals in a group. The compounds were administered per os at a dose of 25 mg/kg. After 15 minutes of drug administration, Nicotine tartarate was administered intravenously at an amount of 3 mg/kg and the tonic convulsions and dead animals because of the convulsions have been measured. The effect of the compounds has been indicated by percentage of appearance of tonic convulsion and the mortality.

Data set [2] deals with oxotremorine-induced tremor. Nature of the data set: Effect on oxotremorine-induced tremor. It is filed as in vivo, male ddY mice. As to conditions: 100 mg/kg p.o., oxotremorine 1 mg/kg i.p. 15 min later, 0=absent to 5=lack of righting reflex; for tremor score, 5 min: passage of time 5 min; for tremor score, 10 min: passage of time 10 min; for tremor score, 15 min: passage of time 15 min; for tremor score, 20 min: passage of time 20 min; for tremor score, 30 min: passage of time 30 min. As for the experimental part:
3. Effect on oxotremorine-induced tumor
Male ddY mice 5 weeks old were used with 5 animals in a group. The compounds were administrated per os at a dose of 100 mg/kg and after 15 minutes oxotremorine was intraperitoneally administered at dose of 1 mg/kg. The strength of the induced tremor was observed by the method of Suzuki et al (Folia Pharmacologica Japonica, 83, 127(1983) and scored up with passage of time as follows:
4=severe, 5=lack of righting reflex.

A short description of data set [3]: in vivo. As to conditions: mouse. The procedure:
Male ddY mice 5 weeks old were used with 5 animals at a group. The compounds were administrated orally with each dosage. LD50 was determined by the Probit method from dead animals dying within 7 days.

For data set [4] the following is noted: versus Tolperisone; cited from earlier work.
The conditions of data set [5]: cited from earlier work; for side effect (prior art): in vivo.

As for `CCCCc1ccc(C(=O)C(C)CN2CCCC2)cc1` (stereo not drawn) [Compound 1, 4'-n-Butyl-2-methyl-3-pyrrolidinopropiophenone], in data set [1], the “appearance of tonic convulsion” value is reported as 20% and the mortality is 40%. For the same molecule, in data set [2], the “tremor score, 5 min” value turned out to be 0; the “tremor score, 10 min” value turned out to be 0.4; the “tremor score, 15 min” value is 0.4; the “tremor score, 20 min” value worked out at 0.9. The “tremor score, 30 min” value in data set [2] is given as 0.8. Also, in data set [3] (oral, deaths within 7 days, Probit method, n=5 per group), the LD50 at 168 h came to 520 mg/kg.

With `CCc1ccc(C(=O)C(C)CN2CCCCC2)cc1` (stereo not drawn) [Eperisone], the “muscle relaxation activity of Eperisone (prior art)” value in data set [4] is “improvement in muscle relaxation activity”. In data set [5] (Eperisone versus Tolperisone), the “toxicity (prior art)” value is recorded as “just the same strong toxicity as Tolperisone”. For the same molecule, in data set [5], the “side effect (prior art)” value was “hepatic and kidney function disorder”.

Regarding `CCc1ccc(C(=O)C(C)CN2CCCC2)cc1` (stereo not drawn) [Compound 2, 4'-Ethyl-2-methyl-3-pyrrolidinopropiophenone], in data set [1], the “appearance of tonic convulsion” value amounted to 40% and the mortality came to 60%. In addition, in data set [2], the “tremor score, 5 min” value is recorded as 0; the “tremor score, 10 min” value was 0.4; the “tremor score, 15 min” value came out at 0.3; the “tremor score, 20 min” value worked out at 0.4. The “tremor score, 30 min” value in data set [2] was 0.4.

`Cc1ccc(C(=O)C(C)CN2CCCCC2)cc1` (stereo not drawn) [Tolperisone]: the “side effect (prior art)” value in data set [5] was “hepatic functional disorder”.

In the case of `CCc1ccc(C(=O)C(C)CN2CCCCC2)cc1` (stereo not drawn) [Reference Drug, Eperisone hydrochloride, reference compound], in data set [1], the “appearance of tonic convulsion” value was 60% and the mortality came to 100%. Moreover, in data set [2], the “tremor score, 5 min” value is listed as 0; the “tremor score, 10 min” value was determined as 0.4; the “tremor score, 15 min” value came out at 0.3; the “tremor score, 20 min” value is reported as 0.2. Further, the “tremor score, 30 min” value in data set [2] amounted to 0. Further, in data set [3] (po), the LD50 at 168 h amounted to 332 mg/kg.

The record behind these values is US4638009A, “Derivatives of 3-pyrrolidinopropiophenone and a process for preparation thereof” (Hokuriku Pharmaceutical Co., Ltd., priority 1984, dated 1987).
